From patent publication US9156796B2, “Benzoimidazole-carboxylic acid amide derivatives as APJ receptor modulators” (SANOFI, priority 2013, dated 2015)

Each molecule was assayed against T1, human apelin receptor (Homo sapiens, UniProt P35414) (assay: Determination of agonism on the human apelin receptor by a calcium fluorescence assay (FLIPR)). Conditions: HEK293 cells stably transfected with human apelin receptor and Giaq protein, Fluo-4 calcium fluorescence, read-out: EC50 (APJ agonism).
T1 construct: expressed in transfected cells
T1 sequence (P35414 1-380): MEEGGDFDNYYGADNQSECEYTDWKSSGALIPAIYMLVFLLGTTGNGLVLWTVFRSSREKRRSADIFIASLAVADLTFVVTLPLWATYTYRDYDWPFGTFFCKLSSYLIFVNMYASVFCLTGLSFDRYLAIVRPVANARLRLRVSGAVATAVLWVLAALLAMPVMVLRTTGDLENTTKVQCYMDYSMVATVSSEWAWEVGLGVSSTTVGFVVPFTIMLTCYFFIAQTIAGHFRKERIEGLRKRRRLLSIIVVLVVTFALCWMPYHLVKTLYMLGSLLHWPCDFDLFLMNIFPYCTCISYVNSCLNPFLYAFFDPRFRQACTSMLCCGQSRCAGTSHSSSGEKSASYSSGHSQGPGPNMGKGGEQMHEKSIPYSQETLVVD
Format: cell-based
In short: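 Agonist EC50s come from peak intracellular calcium transients recorded by FLIPR Tetra, scaled to the 1 μM apelin-13 maximum per plate. Test system: HEK293 stably transfected with human apelin receptor plus Giaq, Fluo-4-loaded (4 μM, 1 h, 37 °C, pH 7.4 buffer with probenecid); ≥7 concentrations, triplicates.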

Structure (SMILES)	EC50 [µM]
C[C@@H]1CCCC[C@H]1n1c(Cc2cccs2)nc2cc(C(=O)N[C@@H](CC3CCCCC3)[C@H](O)CC(=O)O)ccc21 [Example 74, (3R,4S)-5-Cyclohexyl-3-hydroxy-4-{[1-((1R,2R)-2-methyl-cyclohexyl)-2-thiophen-2-ylmethyl-1H-benzoimidazole-5-carbonyl]-amino}-pentanoic acid]	0.14
CC(C)C[C@H](NC(=O)c1ccc2c(c1)nc(Cc1cccs1)n2[C@@H]1CCCC[C@H]1C)[C@@H](O)CC(=O)O [Example 78, (3S,4S)-3-Hydroxy-6-methyl-4-{[1-((1R,2R)-2-methyl-cyclohexyl)-2-thiophen-2-ylmethyl-1H-benzoimidazole-5-carbonyl]-amino}-heptanoic acid]	0.101
CCC(CC)n1c(CC2CCCO2)nc2cc(C(=O)N[C@@H](CC(C)C)C(=O)O)ccc21 (stereo partly drawn) [Example 80, (S)-2-{[1-(1-Ethyl-propyl)-2-(tetrahydro-furan-2-ylmethyl)-1H-benzoimidazole-5-carbonyl]-amino}-4-methyl-pentanoic acid]	1.67
CCC(CC)n1c(Cc2ccc(Cl)s2)nc2cc(C(=O)N[C@@H](CC(C)C)C(=O)O)ccc21 [Example 82, (S)-2-{[2-(5-Chloro-thiophen-2-ylmethyl)-1-(1-ethyl-propyl)-1H-benzoimidazole-5-carbonyl]-amino}-4-methyl-pentanoic acid]	23.3
CC(C)C[C@H](NC(=O)c1ccc2c(c1)nc(Cc1cccs1)n2CC1CCCCC1)C(=O)O [Example 83, (S)-2-[(1-Cyclohexylmethyl-2-thiophen-2-ylmethyl-1H-benzoimidazole-5-carbonyl)-amino]-4-methyl-pentanoic acid]	18.2
CCC(CC)n1c(Cc2cscn2)nc2cc(C(=O)N[C@@H](CC(C)C)C(=O)O)ccc21 [Example 84, (S)-2-{[1-(1-Ethyl-propyl)-2-thiazol-4-ylmethyl-1H-benzoimidazole-5-carbonyl]-amino}-4-methyl-pentanoic acid]	2.95
CCC(CC)n1c(Cc2cscn2)nc2cc(C(=O)N[C@H](C(=O)O)[C@@H](C)CC)ccc21 [Example 85, (2S,3S)-2-{[1-(1-Ethyl-propyl)-2-thiazol-4-ylmethyl-1H-benzoimidazole-5-carbonyl]-amino}-3-methyl-pentanoic acid]	7.8
CC(C)C[C@H](NC(=O)c1ccc2c(c1)nc(Cc1cccs1)n2C1CCCCC1C(F)(F)F)C(=O)O (stereo partly drawn) [Example 87, (S)-4-Methyl-2-{[2-thiophen-2-ylmethyl-1-(2-trifluoromethyl-cyclohexyl)-1H-benzoimidazole-5-carbonyl]-amino}-pentanoic acid]	0.882
CCC[C@H](NC(=O)c1ccc2c(c1)nc(Cc1cccs1)n2C1CCCCC1C(F)(F)F)C(=O)O (stereo partly drawn) [Example 88, (S)-2-{[2-Thiophen-2-ylmethyl-1-(2-trifluoromethyl-cyclohexyl)-1H-benzoimidazole-5-carbonyl]-amino}-pentanoic acid]	0.754
O=C(N[C@@H](Cc1ccccc1)C(=O)O)c1ccc2c(c1)nc(Cc1cccs1)n2C1CCCCC1C(F)(F)F (stereo partly drawn) [Example 89, (S)-3-Phenyl-2-{[2-thiophen-2-ylmethyl-1-(2-trifluoromethyl-cyclohexyl)-1H-benzoimidazole-5-carbonyl]-amino}-propionic acid]	9.33
CC(C)C[C@H](NC(=O)c1ccc2c(c1)nc(Cc1cccs1)n2C1CCCC1C)C(=O)O (stereo partly drawn) [Example 90, (S)-4-Methyl-2-{[1-(2-methyl-cyclopentyl)-2-thiophen-2-ylmethyl-1H-benzoimidazole-5-carbonyl]-amino}-pentanoic acid]	0.472
CCC[C@H](NC(=O)c1ccc2c(c1)nc(Cc1cccs1)n2[C@@H]1CCCC[C@H]1C)C(=O)O [Example 91, (S)-2-{[1-((1R,2R)-2-Methyl-cyclohexyl)-2-thiophen-2-ylmethyl-1H-benzoimidazole-5-carbonyl]-amino}-pentanoic acid]	0.137
CCC1CCCCC1n1c(Cc2cccs2)nc2cc(C(=O)N[C@@H](CC(C)C)C(=O)O)ccc21 (stereo partly drawn) [Example 93, (S)-2-{[1-(2-Ethyl-cyclohexyl)-2-thiophen-2-ylmethyl-1H-benzoimidazole-5-carbonyl]-amino}-4-methyl-pentanoic acid]	0.291
CCC[C@H](NC(=O)c1ccc2c(c1)nc(Cc1cccs1)n2C(CC)CC)C(=O)O [Example 94, (S)-2-{[1-(1-Ethyl-propyl)-2-thiophen-2-ylmethyl-1H-benzoimidazole-5-carbonyl]-amino}-pentanoic acid]	0.781
CC(C)C[C@@H](CC(=O)O)NC(=O)c1ccc2c(c1)nc(Cc1cccs1)n2CC1CCCCC1 [Example 97, (S)-3-[(1-Cyclohexylmethyl-2-thiophen-2-ylmethyl-1H-benzoimidazole-5-carbonyl)-amino]-5-methyl-hexanoic acid]	39
CCC(CC)n1c(Cc2cscn2)nc2cc(C(=O)N[C@H](CC(=O)O)CC(C)C)ccc21 [Example 98, (S)-3-{[1-(1-Ethyl-propyl)-2-thiazol-4-ylmethyl-1H-benzoimidazole-5-carbonyl]-amino}-5-methyl-hexanoic acid]	2.19

Now those with a lower EC50, led by results:

EC50 [µM]	Structure (SMILES)
0.073	CCC(CC)n1c(Cc2cccs2)nc2cc(C(=O)N[C@H](CCC(=O)O)[C@@H](C)CC)ccc21 [Example 71, (4R,5S)-4-{[1-(1-Ethyl-propyl)-2-thiophen-2-ylmethyl-1H-benzoimidazole-5-carbonyl]-amino}-5-methyl-heptanoic acid]
0.047	CC[C@H](C)[C@@H](CCC(=O)O)NC(=O)c1ccc2c(c1)nc(Cc1cccs1)n2[C@@H]1CCCC[C@H]1C [Example 72, (4R,5S)-5-Methyl-4-{[1-((1R,2R)-2-methyl-cyclohexyl)-2-thiophen-2-ylmethyl-1H-benzoimidazole-5-carbonyl]-amino}-heptanoic acid]
0.065	CCC(CC)n1c(Cc2cccs2)nc2cc(C(=O)N[C@@H](CC3CCCCC3)[C@H](O)CC(=O)O)ccc21 [Example 73, (3R,4S)-5-Cyclohexyl-4-{[1-(1-ethyl-propyl)-2-thiophen-2-ylmethyl-1H-benzoimidazole-5-carbonyl]-amino}-3-hydroxy-pentanoic acid]
0.066	CCC(CC)n1c(Cc2cccs2)nc2cc(C(=O)N[C@@H](CC(C)C)[C@@H](O)CC(=O)O)ccc21 [Example 75, (3S,4S)-4-{[1-(1-Ethyl-propyl)-2-thiophen-2-ylmethyl-1H-benzoimidazole-5-carbonyl]-amino}-3-hydroxy-6-methyl-heptanoic acid]
0.062	CCC(CC)n1c(Cc2cccs2)nc2cc(C(=O)N[C@@H](CC(C)C)[C@H](O)CC(=O)O)ccc21 [Example 76, (3R,4S)-4-{[1-(1-Ethyl-propyl)-2-thiophen-2-ylmethyl-1H-benzoimidazole-5-carbonyl]-amino}-3-hydroxy-6-methyl-heptanoic acid]
0.053	CC(C)C[C@H](NC(=O)c1ccc2c(c1)nc(Cc1cccs1)n2[C@@H]1CCCC[C@H]1C)[C@H](O)CC(=O)O [Example 77, (3R,4S)-3-Hydroxy-6-methyl-4-{[1-((1R,2R)-2-methyl-cyclohexyl)-2-thiophen-2-ylmethyl-1H-benzoimidazole-5-carbonyl]-amino}-heptanoic acid]
0.08	CCC(CC)n1c(Cc2cccs2)nc2cc(C(=O)N[C@@H](CC3CCCCC3)[C@@H](O)CC(=O)O)ccc21 [Example 79, (3S,4S)-5-Cyclohexyl-4-{[1-(1-ethyl-propyl)-2-thiophen-2-ylmethyl-1H-benzoimidazole-5-carbonyl]-amino}-3-hydroxy-pentanoic acid]
< 0.041	CCC(CC)n1c(Cc2ccco2)nc2cc(C(=O)N[C@@H](CC(C)C)C(=O)O)ccc21 [Example 81, (S)-2-{[1-(1-Ethyl-propyl)-2-furan-2-ylmethyl-1H-benzoimidazole-5-carbonyl]-amino}-4-methyl-pentanoic acid]
0.088	CC(C)C[C@H](NC(=O)c1ccc2c(c1)nc(Cc1ccco1)n2C1CCCCC1C)C(=O)O (stereo partly drawn) [Example 86, (S)-2-{[2-Furan-2-ylmethyl-1-(2-methyl-cyclohexyl)-1H-benzoimidazole-5-carbonyl]-amino}-4-methyl-pentanoic acid]
< 0.041	CC[C@H](C)[C@H](NC(=O)c1ccc2c(c1)nc(Cc1cccs1)n2[C@@H]1CCCC[C@H]1C)C(=O)O [Example 92, (2S,3S)-3-Methyl-2-{[1-((1R,2R)-2-methyl-cyclohexyl)-2-thiophen-2-ylmethyl-1H-benzoimidazole-5-carbonyl]-amino}-pentanoic acid]
0.095	CCC(CC)n1c(Cc2cccs2)nc2cc(C(=O)N[C@H](CC(=O)O)CC(C)C)ccc21 [Example 95, (S)-3-{[1-(1-Ethyl-propyl)-2-thiophen-2-ylmethyl-1H-benzoimidazole-5-carbonyl]-amino}-5-methyl-hexanoic acid]
< 0.041	CCC(CC)n1c(Cc2ccco2)nc2cc(C(=O)N[C@H](CC(=O)O)CC(C)C)ccc21 [Example 96, (S)-3-{[1-(1-Ethyl-propyl)-2-furan-2-ylmethyl-1H-benzoimidazole-5-carbonyl]-amino}-5-methyl-hexanoic acid]
0.046	CC(C)C[C@@H](CC(=O)O)NC(=O)c1ccc2c(c1)nc(Cc1ccco1)n2C1CCCCC1C (stereo partly drawn) [Example 99, (S)-3-{[2-Furan-2-ylmethyl-1-(2-methyl-cyclohexyl)-1H-benzoimidazole-5-carbonyl]-amino}-5-methyl-hexanoic acid]
